This is an account of results in patent US11274079B2 (DALIAN INSTITUTE OF CHEMICAL PHYSICS, CHINESE ACADEMY OF …, priority 2018, dated 2022).

Where a name gives a salt, the structure may show the parent alone.

Test [1] has as its target T1, M3 receptor (Homo sapiens, UniProt P20309).
T1 construct: HT-29 cell model endogenously highly expressing the M3 receptor; endogenous in cells; host or cells: HT-29
The experiment in a line: DMR assay, antagonism of acetylcholine in HT-29 cells endogenously expressing the M3 receptor. It is filed as cell-based. The settings on record: for IC50: DMR, acetylcholine 16 μM, 1 h pretreatment, time point 30 min. As for the experimental part:
(§1) The present invention relates to the antagonistic activity of the compound against the muscarinic receptor, which is primarily assessed by a cell-level dynamic mass redistribution (DMR) assay method. All tests are carried out on Epic platform, wherein the target model of the muscarinic receptor M1 is the CHO-K1 ceil model stably transfecting the M1 receptor, the target model of M3 is the HT-29 cell model endogenously highly expressing the M3 receptor, and the selected probe molecule is acetylcholine. Tire probe molecule acetylcholine is dissolved in water, while all other compounds are dissolved in DMSO.
The inoculated cell plate is placed in a cell incubator for culture for 20 h until the cell growth and fusion degree reaches about 95%, and the activity assay is carried out. The culture medium is sucked from the cultured cells, the buffer salt specified by the test is added with a volume of 30 μL per orifice and is stabilized for 1 h. After the baseline is stable, a 2-min baseline is established, and different concentrations of compounds to be tested are added to test the cultured cells for 1 h.

Test [2] deals with T2, M1 receptor (Homo sapiens, UniProt P11229).
T2 construct: expressed in transfected cells; host or cells: CHO-K1
T2 sequence (P11229 1-460): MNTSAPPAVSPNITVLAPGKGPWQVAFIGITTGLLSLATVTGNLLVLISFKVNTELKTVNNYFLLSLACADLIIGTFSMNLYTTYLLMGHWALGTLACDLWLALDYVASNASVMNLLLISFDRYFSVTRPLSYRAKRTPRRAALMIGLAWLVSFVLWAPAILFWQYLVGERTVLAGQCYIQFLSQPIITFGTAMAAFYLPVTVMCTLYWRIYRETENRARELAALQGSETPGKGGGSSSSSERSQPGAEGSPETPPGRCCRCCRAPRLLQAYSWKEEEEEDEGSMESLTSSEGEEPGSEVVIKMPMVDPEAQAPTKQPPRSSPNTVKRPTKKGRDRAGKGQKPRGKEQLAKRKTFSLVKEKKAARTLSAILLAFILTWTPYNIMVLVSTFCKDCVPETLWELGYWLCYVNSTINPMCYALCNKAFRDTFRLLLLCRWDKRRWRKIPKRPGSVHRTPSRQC
Nature of the test: DMR assay, antagonism of acetylcholine in CHO-K1 cells stably transfecting the M1 receptor. The test is classed as cell-based. The settings on record: for IC50: DMR, acetylcholine 1 μM, 1 h pretreatment, time point 5 min; for antagonistic activity against the M1 receptor, in words: structure-activity comparison with parent compound. As for the experimental part:
as §1
The inoculated cell plate is placed in a cell incubator for culture for 12 h until the cell growth and fusion degree reaches about 95%, and the activity assay is carried out. The culture medium is sucked from the cultured ceils, the buffer salt specified by the test is added with a volume of 30 μL per orifice and is stabilized for 1 h. After the baseline is stable, a 2-min baseline is established, and different concentrations of compounds to be tested are added to test the cultured cells for 1 h. After the cells are pretreated with the compounds to be tested for 1 h, the 2-min baseline is re-established, and acetylcholine having a concentration of 1 μM is added to test the cultured cells for 1 h.

T1 sequence (P20309 whole entry): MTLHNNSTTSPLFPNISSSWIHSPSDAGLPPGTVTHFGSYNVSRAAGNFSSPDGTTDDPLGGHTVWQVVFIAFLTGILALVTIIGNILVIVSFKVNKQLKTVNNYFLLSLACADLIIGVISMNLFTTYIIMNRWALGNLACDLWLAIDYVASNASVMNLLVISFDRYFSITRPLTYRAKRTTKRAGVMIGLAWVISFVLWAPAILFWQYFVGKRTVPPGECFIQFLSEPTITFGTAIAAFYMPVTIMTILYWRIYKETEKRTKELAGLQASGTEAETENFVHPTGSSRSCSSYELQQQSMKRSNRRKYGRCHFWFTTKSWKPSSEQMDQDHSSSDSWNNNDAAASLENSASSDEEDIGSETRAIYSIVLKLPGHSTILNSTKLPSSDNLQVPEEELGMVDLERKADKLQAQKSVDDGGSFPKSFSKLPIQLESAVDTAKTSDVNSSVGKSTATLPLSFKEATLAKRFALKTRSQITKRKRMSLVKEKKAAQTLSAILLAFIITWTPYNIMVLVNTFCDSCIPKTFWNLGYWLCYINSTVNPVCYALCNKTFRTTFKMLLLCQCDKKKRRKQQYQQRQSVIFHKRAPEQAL

As to `Cc1ccc(O)c(C(CC2CCCC[N+]2(C)C)c2ccccc2)c1` (stereo not shown) [I-4b-1-Br, 2-[2-(2-hydroxy-5-methyl-phenyl)-phenethyl]-N,N-dimethylpiperidine Bromide], the IC50 in test [1] (HT-29 cells) is 27.1 ± 5.3 nM; in test [2] (CHO-K1-M1 cells), 47.5 ± 13.5 nM.
For the molecule `Cc1ccc(O)c(C(CC2CCCCN2C)c2ccc(Cl)cc2)c1` (stereo not shown) [II-14, 2-[2-(4-chlorophenyl)-2-(2-hydroxy-5-methylphenyl)ethyl]-N-methylpiperidine], the IC50 in test [1] (HT-29 cells) is 149 ± 39.5 nM; in test [2] (CHO-K1-M1 cells) it was 129 ± 29.8 nM.
For `Cc1ccc(O)c(C(CC2CCCC[N+]2(C)C)c2ccc(Cl)cc2)c1` (stereo not shown) [I-14, 2-[2-(4-chlorophenyl)-2-(2-hydroxy-5-methylphenyl)-ethyl]-N,N-dimethylpiperidine Bromide] the same measures were 87.2 ± 36.5 nM and 79.2 ± 36.9 nM.
For the molecule `C[N+]1(C)CCCCC1CC(c1ccccc1)c1ccc(F)cc1O` (stereo not shown) [I-8, 2-[2-(2-hydroxy-4-fluorophenyl)-phenethyl]-N,N-dimethylpiperidine bromide], the IC50 in test [1] (HT-29 cells) came to 97.2 ± 21.1 nM; in test [2] (CHO-K1-M1 cells), 113 ± 41.2 nM.
For `C[N+]1(C)CCCCC1CC(c1ccccc1)c1ccccc1O` (stereo not shown) [I-2a-2-Br, 2-[2-(2-hydroxy-phenyl)-phenethyl]-N,N-dimethylpiperidine Bromide] the same measures were 28.4 ± 6.1 nM and 33.8 ± 8.6 nM.
As to `CCc1cccc(C(CC2CCCCN2C)c2cc(C(C)C)cc(C)c2O)c1` (stereo not shown) [II-16, 2-[2-(2-hydroxy-3-methyl-5-isopropylphenyl)-2-(3-ethylphenyl)-ethyl]-N-methylpiperidine], the IC50 in test [1] (HT-29 cells) is 371 ± 67.8 nM.
For the molecule `C[N+]1(C)CCCCC1CC(c1ccccc1)c1cc(F)ccc1O` (single isomer, unassigned) [I-10a-2, 2-[2-(2-hydroxy-5-fluorophenyl)-phenylethyl]-N,N-dimethylpiperidine bromide], in test [1] (HT-29 cells), the IC50 is 82.9 ± 11.7 nM.
Turning to `Cc1ccc(O)c(C(CC2CCCC[N+]2(C)C)c2ccccc2)c1` (stereo not shown) [I-4B-2-Br, 2-[2-(2-hydroxy-5-methyl-phenyl)-phenethyl]-N,N-dimethylpiperidine Bromide], the figures for the IC50 in test [1] (HT-29 cells) and in test [2] (CHO-K1-M1 cells) were 217 ± 37.9 nM and 157 ± 61.6 nM, respectively.
For `CCc1ccc(O)c(C(CC2CCCC[N+]2(C)C)c2ccccc2)c1` (stereo not shown) [I-5-Br, 2-[2-(2-hydroxy-5-ethyl-phenyl)-phenethyl]-N,N-dimethylpiperidine Bromide] the same measures were 10.5 ± 1.1 nM and 45.6 ± 7.8 nM.
On the same counts, the results for `CN1CCCCC1CC(c1ccccc1O)c1ccccc1O` (stereo not shown) [I-3-Cl, 2-[2,2-bis(2-hydroxyphenyl)-ethyl]-N-methylpiperidine Hydrochloride] are 66.2 ± 51.8 nM and 402 ± 185 nM.
Turning to `CN1CCCCC1CC(c1ccccc1)c1cc(O)ccc1O` (stereo not shown) [II-11, 2-[2-(2,5-dihydroxy-phenyl)-phenethyl]-N-methylpiperidine], the values for the IC50 in test [1] (HT-29 cells) and in test [2] (CHO-K1-M1 cells) were 370 ± 159 nM and 190 ± 35.8 nM, respectively.
On the same counts, the results for `CCc1ccc(O)c(C(CC2CCCN2C)c2ccccc2)c1` (stereo not shown) [II-20] are 258 ± 30.4 nM and 63 ± 7.5 nM.
For `CN1CCCCC1CC(c1ccccc1O)c1ccccc1O` (single isomer, unassigned) [II-3-2, 2-[2,2-bis(2-hydroxy-phenyl)-ethyl]-N-methylpiperidine] the same measures were 67.3 ± 6.6 nM and 53.4 ± 16.2 nM.
On the same counts, the results for `COc1ccc(O)c(C(CC2CCCCN2C)c2ccccc2)c1` (stereo not shown) [II-9, 2-[2-(2-hydroxy-5-methoxy-phenyl)-phenethyl]-N-methylpiperidine] are 320 ± 41.4 nM and 73.2 ± 12.5 nM.
`Cc1ccc(OC(=O)c2ccccc2)c(C(CC2CCCC[N+]2(C)C)c2ccccc2)c1` (stereo not shown) [I-25, 2-[2-(2-benzoate Group-5-methyl-phenyl)-phenethyl]-N,N-dimethylpiperidine Bromide]: the 50% inhibitory concentration (IC50) was 2310 ± 600 nM in test [1] (HT-29 cells) and 997 ± 60 nM in test [2] (CHO-K1-M1 cells).
Turning to `CN1CCCCC1CC(c1ccccc1O)c1ccccc1O` (single isomer, unassigned) [II-3-1, 2-[2,2-bis(2-hydroxy-phenyl)-ethyl]-N-methylpiperidine], the results for the IC50 in test [1] (HT-29 cells) and in test [2] (CHO-K1-M1 cells) were 15.4 ± 2.9 nM and 30.4 ± 12.6 nM, respectively.
With `CCc1ccc(O)c(C(CC2CCCCN2C)c2ccccc2)c1` (stereo not shown), in test [2] (CHO-K1-M1 cells, FIG. 1), the “DMR response signal of the compound itself” value is “almost zero”. Further, in test [2], the “antagonistic activity against the M1 receptor, in words” value is listed as “the highest”.
As for `C[N+]1(C)CCCCC1CC(c1ccccc1)c1cc(F)ccc1O` (single isomer, unassigned) [I-10b, 2-[2-(2-hydroxy-5-fluorophenyl)-phenylethyl]-N,N-dimethylpiperidine bromide], the IC50 in test [1] (HT-29 cells) came out at 12.1 ± 5.3 nM; in test [2] (CHO-K1-M1 cells), 23.2 ± 12.1 nM.
With `CC(=O)Oc1ccc(C)cc1C(CC1CCCCN1C)c1ccccc1` (stereo not shown) [II-24, 2-[2-(2-acetategroup-5-methyl-phenyl)-phenethyl]-N-methylpiperidine], the figures for the IC50 in test [1] (HT-29 cells) and in test [2] (CHO-K1-M1 cells) were 1210 ± 120 nM and 3340 ± 210 nM, respectively. Further, the “antagonistic activity against the M3 receptor, in words” value in test [1] (structure-activity comparison with parent compound) is given as “the activity is greatly decreased”. For the same molecule, the “antagonistic activity against the M1 receptor, in words” value in test [2] is reported as “the activity is greatly decreased”.
As for `CCCCCOc1ccc(O)c(C(CC2CCCCN2C)c2ccccc2)c1` (stereo not shown) [II-12, 2-[2-(2-hydroxy-5-pentyloxy-phenyl)-phenethyl]-N-methylpiperidine], the IC50 in test [1] (HT-29 cells) turned out to be 620 ± 49.4 nM.
As to `C[N+]1(C)CCCCC1CC(c1ccccc1)c1ccccc1O` (stereo not shown) [I-2a-I, 2-[2-(2-hydroxy-phenyl)-phenethyl]N,N-dimethylpiperidine Iodide], the IC50 was 25.6 ± 1.9 nM in test [1] (HT-29 cells) and 16.5 ± 1.8 nM in test [2] (CHO-K1-M1 cells).
As to `CCCc1ccc(O)c(C(CC2CCCCN2C)c2ccccc2)c1` (stereo not shown) [II-6], the IC50 came to 110 ± 13.9 nM in test [1] (HT-29 cells) and 73.2 ± 12.5 nM in test [2] (CHO-K1-M1 cells).
For the molecule `CCc1ccc(O)c(C(CC2CCC[N+]2(C)C)c2ccccc2)c1` (stereo not shown) [I-20, 2-[2-(2-hydroxy-5-ethyl-phenyl)-phenethyl]-N,N-dimethylpyrrolidine Bromide], the IC50 in test [1] (HT-29 cells) turned out to be 53.2 ± 9.3 nM; in test [2] (CHO-K1-M1 cells) it was 89 ± 7.3 nM.
Take `Cc1ccc(O)c(C(CC2CCCCN2C)c2ccsc2)c1` (stereo not shown) [II-22, 2-[2-(3-thienyl)-2-(2-hydroxy-5-methyl-phenyl)-ethyl]-N-methylpiperidine]: the half-inhibitory concentration (IC50) in test [1] (HT-29 cells) stood at 20.7 ± 3.6 nM.
Turning to `CN1CCCCC1CC(c1ccccc1)c1cc(F)ccc1O` (single isomer, unassigned) [II-10b, 2-[2-(2-hydroxy-5-fluorophenyl)-phenethyl]-N-methylpiperidine], the IC50 in test [1] (HT-29 cells) amounted to 109 ± 39.4 nM; in test [2] (CHO-K1-M1 cells) it was 83.2 ± 22.8 nM.
As to `C[N+]1(C)CCCCC1CC(c1ccccc1)c1cc(F)ccc1O` (single isomer, unassigned) [I-10b-2, 2-[2-(2-hydroxy-5-fluorophenyl)-phenylethyl]-N,N-dimethylpiperidine bromide], the IC50 in test [1] (HT-29 cells) was found to be 164 ± 12.6 nM.
On to “2-[2-(2-hydroxy-5-fluorophenyl)-phenylethyl]-N,N-dimethylpiperidine bromide [I-10b]”, for which the IC50 in test [1] (HT-29 cells) worked out at 109 ± 39.4 nM.
On the same count and under the same terms, then “2-[2-(2-methyl p-toluenesulfonate group-5-methyl-phenyl)-phenethyl]-N,N-dimethylpiperidine Bromide [I-26]”, with 793 ± 69.7 nM.
Take `CN1CCCCC1CC(c1ccccc1)c1ccccc1O` (stereo not shown) [II-2a, 2-[2-(2-hydroxy-phenyl)phenethyl]-N-methylpiperidine]: in test [1] (HT-29 cells, FIG. 2), the “DMR response signal of the compound itself” value was “almost zero”.
As to `CN1CCCCC1CC(c1ccccc1)c1cc(C(F)(F)F)ccc1O` (stereo not shown) [II-13, 2-[2-(2-hydroxy-5-trifluoromethyl-phenyl)-phenethyl]-N-methylpiperidine], the IC50 in test [1] (HT-29 cells) is 249 ± 9.8 nM.
As to `C[N+]1(C)CCCCC1CC(c1ccccc1)c1cc(F)ccc1O` (single isomer, unassigned) [I-10a, 2-[2-(2-hydroxy-5-fluorophenyl)-phenylethyl]-N,N-dimethylpiperidine bromide], the IC50 in test [2] (CHO-K1-M1 cells) turned out to be 13.2 ± 1.2 nM.
As for `C[N+]1(C)CCCCC1CC(c1ccccc1)c1cc(F)ccc1O` (stereo not shown) [I-10b-1, 2-[2-(2-hydroxy-5-fluorophenyl)-phenylethyl]-N,N-dimethylpiperidine bromide], the IC50 in test [1] (HT-29 cells) worked out at 35.2 ± 6.3 nM.
